In the supplement of paper PMC8612539:
Values after ≈ are worked out from the molar mass of the structure shown.

Tested on: Histophilus somni
Assay: minimum inhibitory concentration (MIC)
Experimental: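 Broth microdilution MIC (Sensititre BOPO7F bovine plate, CLSI methods) of 19 antimicrobials against field isolates of P. multocida, M. haemolytica, H. somni (deep nasopharyngeal swabs) and E. coli, Enterococcus spp. (rectal swabs) from weaned dairy heifers. Incubation 16-24 h at 35 C. MIC is the lowest concentration preventing visible growth. Values with <= or > lie at the tested range limits. Trimethoprim-sulfamethoxazole is given as the trimethoprim component of a 1:19 mixture.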

CC[C@H]1OC(=O)C[C@@H](O)[C@H](C)[C@@H](O[C@@H]2O[C@H](C)[C@@H](O)[C@H](N(C)C)[C@H]2O)[C@@H](CCN2CCCCC2)C[C@@H](C)C(=O)/C=C/C(C)=C/[C@@H]1CN1CCCCC1 [Tildipirosin]
Settings	minimum inhibitory concentration [µg/mL]
isolate (source animal id): 3	≤ 1
isolate (source animal id): 4	2 (≈ 2.72 µM)
isolate (source animal id): 7	≤ 1
isolate (source animal id): 14	≤ 1
isolate (source animal id): 15	4 (≈ 5.45 µM)
isolate (source animal id): 17	≤ 1
isolate (source animal id): 18	≤ 1
isolate (source animal id): 20	≤ 1
isolate (source animal id): 23	2 (≈ 2.72 µM)
isolate (source animal id): 45	4 (≈ 5.45 µM)
isolate (source animal id): 53	4 (≈ 5.45 µM)
isolate (source animal id): 83	2 (≈ 2.72 µM)
isolate (source animal id): 88	2 (≈ 2.72 µM)
isolate (source animal id): 92	4 (≈ 5.45 µM)
isolate (source animal id): 93	≤ 1
isolate (source animal id): 99	2 (≈ 2.72 µM)
isolate (source animal id): 100	4 (≈ 5.45 µM)
isolate (source animal id): 105	≤ 1
isolate (source animal id): 107	2 (≈ 2.72 µM)
isolate (source animal id): 108	4 (≈ 5.45 µM)
isolate (source animal id): 109	4 (≈ 5.45 µM)
isolate (source animal id): 110	4 (≈ 5.45 µM)
isolate (source animal id): 117	≤ 1
isolate (source animal id): 121	≤ 1
isolate (source animal id): 123	2 (≈ 2.72 µM)
isolate (source animal id): 124	2 (≈ 2.72 µM)
isolate (source animal id): 127	≤ 1
isolate (source animal id): 128	2 (≈ 2.72 µM)
isolate (source animal id): 130	2 (≈ 2.72 µM)
isolate (source animal id): 132	4 (≈ 5.45 µM)
isolate (source animal id): 135	2 (≈ 2.72 µM)
isolate (source animal id): 140	2 (≈ 2.72 µM)
isolate (source animal id): 141	2 (≈ 2.72 µM)
isolate (source animal id): 142	> 16
isolate (source animal id): 144	4 (≈ 5.45 µM)
isolate (source animal id): 146	4 (≈ 5.45 µM)
isolate (source animal id): 147	> 16
isolate (source animal id): 151	2 (≈ 2.72 µM)
isolate (source animal id): 153	8 (≈ 10.9 µM)
isolate (source animal id): 154	> 16
isolate (source animal id): 156	> 16
isolate (source animal id): 157	8 (≈ 10.9 µM)
isolate (source animal id): 176	2 (≈ 2.72 µM)
isolate (source animal id): 183	2 (≈ 2.72 µM)
isolate (source animal id): 186	4 (≈ 5.45 µM)
isolate (source animal id): 196	4 (≈ 5.45 µM)
isolate (source animal id): 198	4 (≈ 5.45 µM)
isolate (source animal id): 200	8 (≈ 10.9 µM)
isolate (source animal id): 206	8 (≈ 10.9 µM)
isolate (source animal id): 208	8 (≈ 10.9 µM)
isolate (source animal id): 210	2 (≈ 2.72 µM)
isolate (source animal id): 212	≤ 1
isolate (source animal id): 215	4 (≈ 5.45 µM)
isolate (source animal id): 216	8 (≈ 10.9 µM)
isolate (source animal id): 218	4 (≈ 5.45 µM)
isolate (source animal id): 219	8 (≈ 10.9 µM)
isolate (source animal id): 224	8 (≈ 10.9 µM)
isolate (source animal id): 228	4 (≈ 5.45 µM)
isolate (source animal id): 230	≤ 1
isolate (source animal id): 233	≤ 1
isolate (source animal id): 238	≤ 1
isolate (source animal id): 239	2 (≈ 2.72 µM)
isolate (source animal id): 241	2 (≈ 2.72 µM)
isolate (source animal id): 242	2 (≈ 2.72 µM)
isolate (source animal id): 243	≤ 1
isolate (source animal id): 245	≤ 1
isolate (source animal id): 246	4 (≈ 5.45 µM)
isolate (source animal id): 247	2 (≈ 2.72 µM)
isolate (source animal id): 248	≤ 1
isolate (source animal id): 250	2 (≈ 2.72 µM)
isolate (source animal id): 251	4 (≈ 5.45 µM)
isolate (source animal id): 252	4 (≈ 5.45 µM)
isolate (source animal id): 254	4 (≈ 5.45 µM)
isolate (source animal id): 258	2 (≈ 2.72 µM)
isolate (source animal id): 259	2 (≈ 2.72 µM)
isolate (source animal id): 262	≤ 1
isolate (source animal id): 264	≤ 1
isolate (source animal id): 265	2 (≈ 2.72 µM)
isolate (source animal id): 266	2 (≈ 2.72 µM)
isolate (source animal id): 267	2 (≈ 2.72 µM)
isolate (source animal id): 269	2 (≈ 2.72 µM)
isolate (source animal id): 271	2 (≈ 2.72 µM)
isolate (source animal id): 272	≤ 1
isolate (source animal id): 274	≤ 1
isolate (source animal id): 276	≤ 1
isolate (source animal id): 278	2 (≈ 2.72 µM)
isolate (source animal id): 280	≤ 1
isolate (source animal id): 281	4 (≈ 5.45 µM)
isolate (source animal id): 283	2 (≈ 2.72 µM)
isolate (source animal id): 288	4 (≈ 5.45 µM)
isolate (source animal id): 291	2 (≈ 2.72 µM)
isolate (source animal id): 292	4 (≈ 5.45 µM)
isolate (source animal id): 296	2 (≈ 2.72 µM)
isolate (source animal id): 306	8 (≈ 10.9 µM)
isolate (source animal id): 336	8 (≈ 10.9 µM)
isolate (source animal id): 337	8 (≈ 10.9 µM)
isolate (source animal id): 341	4 (≈ 5.45 µM)
